According to US12319655B2, “RAF kinase inhibitors and methods of use thereof” (Deciphera Pharmaceuticals, LLC, priority 2021, dated 2025):
Read-outs that look alike come from different tables or passages of the source.

Legend:
[1] = target: A-Raf kinase (SEQ. ID No: 1) (Homo sapiens (Human), UniProt P10398, Y301D/Y302D); assay: Biochemical Assay for A-Raf (1); conditions: Table J
Method: Biochemical Assay for A-Raf (1)
(§1) Activity of A-Raf kinase (SEQ. ID No: 1) was determined spectroscopically using a coupled pyruvate kinase/lactate dehydrogenase assay that continuously monitors the ATP hydrolysis-dependent oxidation of NADH (e.g., Schindler et al., Science, 2000, 289, 1938-1942). Assays were conducted in 384-well plates (100 μL final volume) using 5.55 nM A-Raf (Sigma), 1.5 units pyruvate kinase, 2.1 units lactate dehydrogenase, 1 mM phosphoenol pyruvate, 0.28 mM NADH, 30.1 nM MEK (SignalChem), and 1 mM ATP in assay buffer (100 mM Tris, pH 7.5, 15 mM MgCl2, 0.5 mM DTT, 0.1% octyl-glucoside, 0.002% (w/v) BSA, and 0.002% Triton X-100). Inhibition of A-Raf was measured by adding serial diluted test compound (final assay concentration of 1% DMSO). A decrease in absorption at 340 nm was monitored continuously for 6 h at 30° C. on a multi-mode microplate reader (BioTek). The reaction rate was calculated using the 4 to 5 h time frame. The reaction rate at each concentration of compound was converted to percent inhibition using controls (i.e., reaction with no test compound and reaction with a known inhibitor) and IC50 values were calculated by fitting a four-parameter sigmoidal curve to the data using Prism (GraphPad software).

[2] = target: B-Raf kinase (SEQ. ID NO: 2) (Homo sapiens (Human), UniProt P15056); assay: Biochemical Assay for B-Raf (1); conditions: Table J
B-Raf kinase (SEQ. ID NO: 2), sequence (P15056 416-766): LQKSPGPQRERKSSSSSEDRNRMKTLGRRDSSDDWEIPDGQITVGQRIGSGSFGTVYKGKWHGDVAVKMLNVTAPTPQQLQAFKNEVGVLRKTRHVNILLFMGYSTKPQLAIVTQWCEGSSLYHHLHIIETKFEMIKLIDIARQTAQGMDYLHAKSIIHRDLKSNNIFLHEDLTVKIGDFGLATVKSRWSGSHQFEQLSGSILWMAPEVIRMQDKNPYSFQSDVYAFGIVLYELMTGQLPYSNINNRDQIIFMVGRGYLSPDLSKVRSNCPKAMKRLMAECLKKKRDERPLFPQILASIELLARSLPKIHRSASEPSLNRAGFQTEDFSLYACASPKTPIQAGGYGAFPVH
Method: Biochemical Assay for B-Raf (1)
as §1, with “B-Raf” for “A-Raf”, “NO: 2)” for “No: 1)”, “0.13” for “5.55”, “Ph” for “pH”

[3] = target: C-Raf kinase (SEQ. ID NO: 3) (Homo sapiens (Human), UniProt P04049, Y340D/Y341D); assay: Biochemical Assay for C-Raf (1); conditions: Table J
C-Raf kinase (SEQ. ID NO: 3), sequence (P04049 307-648 Y340D/Y341D): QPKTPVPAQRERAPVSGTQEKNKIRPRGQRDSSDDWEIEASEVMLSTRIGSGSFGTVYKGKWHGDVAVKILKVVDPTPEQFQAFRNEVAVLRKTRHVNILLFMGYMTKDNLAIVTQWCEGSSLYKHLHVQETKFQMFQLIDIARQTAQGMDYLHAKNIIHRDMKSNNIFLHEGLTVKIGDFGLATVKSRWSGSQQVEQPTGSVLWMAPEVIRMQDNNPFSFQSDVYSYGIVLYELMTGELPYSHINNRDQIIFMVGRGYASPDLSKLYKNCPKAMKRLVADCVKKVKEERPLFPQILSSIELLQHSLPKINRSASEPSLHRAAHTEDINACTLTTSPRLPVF
Method: Biochemical Assay for C-Raf (1)
as §1, with “C-Raf” for “A-Raf”, “NO: 3)” for “No: 1)”, “0.43” for “5.55”, “Ph” for “pH”

[4] = target: B-Raf (V600E) (SEQ. ID NO: 4) kinase (Homo sapiens (Human), UniProt P15056, V600E); assay: Biochemical Assay for B-Raf (V600E) (1); conditions: Table J, BRAF V600E
B-Raf (V600E) (SEQ. ID NO: 4) kinase, sequence (P15056 416-766 V600E): as the sequence (P15056 416-766) above, with V185E counted along it
Method: Biochemical Assay for B-Raf (V600E) (1)
Activity of B-Raf (V600E) (SEQ. ID NO: 4) kinase was determined spectroscopically using a coupled pyruvate kinase/lactate dehydrogenase assay that continuously monitors the ATP hydrolysis-dependent oxidation of NADH (e.g., Schindler et al., Science, 2000, 289, 1938-1942). Assays were conducted in 384-well plates (100 μL final volume) using 0.03 nM B-Raf (SignalChem), 1.5 units pyruvate kinase, 2.1 units lactate dehydrogenase, 1 mM phosphoenol pyruvate, 0.28 mM NADH, 30.1 nM MEK (SignalChem), and 1 mM ATP in assay buffer (100 mM Tris, Ph 7.5, 15 mM MgCl2, 0.5 mM DTT, 0.1% octyl-glucoside, 0.002% (w/v) BSA, and 0.002% Triton X-100). Inhibition of B-Raf (V600E) was measured by adding serial diluted test compound (final assay concentration of 1% DMSO). A decrease in absorption at 340 nm was monitored continuously for 6 h at 30° C. on a multi-mode microplate reader (BioTek). The reaction rate was calculated using the 3 to 4 h time frame. The reaction rate at each concentration of compound was converted to percent inhibition using controls (i.e., reaction with no test compound and reaction with a known inhibitor) and IC50 values were calculated by fitting a four-parameter sigmoidal curve to the data using Prism (GraphPad software).

[5] = assay version (1), read-out: ARAF (1) IC50
[6] = assay version (1), read-out: BRAF (1) IC50
[7] = assay version (1), read-out: CRAF (1) IC50
[8] = assay version (1), read-out: BRAF VE (1) IC50

A-Raf kinase (SEQ. ID No: 1), sequence (P10398 other isoform, or with tags, fused parts or gaps Y301D (already in the parent)/Y302D (already in the parent)): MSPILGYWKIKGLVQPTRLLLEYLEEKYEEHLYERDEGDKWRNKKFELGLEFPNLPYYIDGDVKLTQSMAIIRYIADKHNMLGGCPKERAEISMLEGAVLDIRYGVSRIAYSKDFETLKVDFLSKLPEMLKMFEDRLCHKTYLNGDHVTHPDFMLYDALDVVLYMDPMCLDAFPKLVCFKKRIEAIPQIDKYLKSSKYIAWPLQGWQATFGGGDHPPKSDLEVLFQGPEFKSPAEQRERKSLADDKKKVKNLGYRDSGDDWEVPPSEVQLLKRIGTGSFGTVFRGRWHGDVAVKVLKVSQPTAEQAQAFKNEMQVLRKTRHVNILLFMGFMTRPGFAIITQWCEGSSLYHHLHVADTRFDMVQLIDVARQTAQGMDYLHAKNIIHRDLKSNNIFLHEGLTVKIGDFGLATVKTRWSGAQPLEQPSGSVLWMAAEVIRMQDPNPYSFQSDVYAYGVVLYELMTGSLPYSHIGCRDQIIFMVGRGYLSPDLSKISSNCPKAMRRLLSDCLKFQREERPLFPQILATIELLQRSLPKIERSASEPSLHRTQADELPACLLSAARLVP

IC50 [1, 5]	IC50 [2, 6]	IC50 [3, 7]	IC50 [4, 8]	IC50 ([1]; biochemical assay (1), read-out: ARAF (1))	IC50 ([2]; biochemical assay (1), read-out: BRAF (1))	IC50 ([3]; biochemical assay (1), read-out: CRAF (1))	IC50 ([4]; biochemical assay (1), read-out: BRAF VE (1))	Compound
1 to 10 µM	1 to 10 µM	0.1 to 0.5 µM	≤ 0.1 µM					CC(=O)Nc1cc(-c2cc(-c3cc(NC(=O)c4ccnc(C(F)(F)F)c4)ccc3C)cc(C(C)(C)O)n2)ccn1 [Example 33]
1 to 10 µM	≤ 0.1 µM	≤ 0.1 µM	≤ 0.1 µM					COCC(=O)Nc1cc(-c2nccc(-c3cc(NC(=O)c4ccnc(C(F)(F)F)c4)ccc3C)n2)ccn1 [Example 137]
1 to 10 µM	1 to 10 µM	1 to 10 µM	0.5 to 1 µM					Cc1ncc(NC(=O)C2CCOCC2)cc1-c1ccnc(-c2ccnc(NC(=O)C3CC3)c2)n1 [Example 336]
1 to 10 µM	1 to 10 µM	1 to 10 µM	1 to 10 µM					Cc1ncc(NC(=O)C2CNCCO2)cc1-c1cccc(-c2cc(NC(=O)C3CC3)ncn2)c1 (centres unmarked) [Example 350]
1 to 10 µM	0.1 to 0.5 µM	0.1 to 0.5 µM	≤ 0.1 µM					Cc1ncc(NC(=O)c2ccnc(C(C)(C)C#N)c2)cc1-c1ccnc(-c2ccnc(NC(=O)C(C)(C)C)c2)c1 [Example 228]
				1 to 10 µM	≤ 0.1 µM	≤ 0.1 µM	0.1 to 0.5 µM	COC(=O)Nc1cc(-c2cnnc(-c3cc(NC(=O)c4ccnc(C(C)(C)C#N)c4)ccc3F)c2)ccn1 [Example 390]
1 to 10 µM	0.1 to 0.5 µM	≤ 0.1 µM	≤ 0.1 µM					CNC(=O)c1cc(-c2cc(-c3cc(NC(=O)c4cc(C(F)(F)F)ccn4)ccc3C)ccn2)ccn1 [Example 126]
1 to 10 µM	≤ 0.1 µM	≤ 0.1 µM	≤ 0.1 µM					CNC(=O)c1cc(-c2cccc(-c3cc(NC(=O)c4ccnc(C(C)(C)C#N)c4)ccc3C)n2)ccn1 [Example 234]
1 to 10 µM	1 to 10 µM	0.5 to 1 µM	0.1 to 0.5 µM					Cc1ncc(NC(=O)c2ccnc(C(C)(C)C#N)c2)cc1-c1nccc(-c2ccnc3c2CC(=O)N3)n1 [Example 93]
1 to 10 µM	0.1 to 0.5 µM	0.1 to 0.5 µM	≤ 0.1 µM					Cc1ccc(NC(=O)c2ccnc(C(C)(C)C#N)c2)cc1-c1ccnc(-c2ccnc(NC(=O)C(C)(C)C)c2)c1 [Example 206]

Continued, compound first:

Compound	IC50 [1, 5]	IC50 [2, 6]	IC50 [3, 7]	IC50 [4, 8]	IC50 ([1]; biochemical assay (1), read-out: ARAF (1))	IC50 ([2]; biochemical assay (1), read-out: BRAF (1))	IC50 ([3]; biochemical assay (1), read-out: CRAF (1))	IC50 ([4]; biochemical assay (1), read-out: BRAF VE (1))
Cc1ncc(NC(=O)C2CCOC2)cc1-c1ccnc(-c2ccnc(NC(=O)C3CC3)c2)n1 (centres unmarked) [Example 337]	1 to 10 µM	1 to 10 µM	1 to 10 µM	1 to 10 µM				
Cc1ncc(NC(=O)C2CCOC2)cc1-c1cccc(-c2cc(NC(=O)C3CC3)ncn2)c1 (centres unmarked) [Example 352]	1 to 10 µM	1 to 10 µM	1 to 10 µM	0.5 to 1 µM				
Cc1ncc(NC(=O)C2CCOCC2)cc1-c1nccc(-c2ccnc(NC(=O)C3CC3)c2)n1 [Example 339]	1 to 10 µM	1 to 10 µM	1 to 10 µM	0.1 to 0.5 µM				
Cc1ncc(NC(=O)CC2CC(F)(F)C2)cc1-c1nccc(-c2ccnc(NC(=O)C3CC3)c2)n1 [Example 354]	1 to 10 µM	0.5 to 1 µM	0.1 to 0.5 µM	≤ 0.1 µM				
Cc1ncc(NC(=O)C23CCC(C#N)(CC2)CC3)cc1-c1cccc(-c2ccnc(NC(=O)C3CC3)c2)n1 [Example 342]	1 to 10 µM	1 to 10 µM	1 to 10 µM	1 to 10 µM				
Cc1ccc(NC(=O)C2CCN(C)C2)cc1-c1cccc(-c2cc(NC(=O)C3CC3)ncn2)c1 (centres unmarked) [Example 344]	1 to 10 µM	1 to 10 µM	0.5 to 1 µM	0.1 to 0.5 µM				
Cc1cc(C(=O)Nc2cnc(C)c(-c3nccc(-c4ccnc(NC(=O)C5CC5)c4)n3)c2)ccn1 [Example 296]	1 to 10 µM	0.1 to 0.5 µM	0.1 to 0.5 µM	≤ 0.1 µM				
CNC(=O)c1cc(-c2cncc(-c3cc(NC(=O)c4ccnc(C(C)(C)C#N)c4)c(F)cc3C)n2)ccn1 [Example 170]	1 to 10 µM	0.1 to 0.5 µM	0.1 to 0.5 µM	≤ 0.1 µM				
Cc1ncc(NC(=O)C2CCN(C)C2)cc1-c1cccc(-c2cc(NC(=O)C3CC3)ncn2)c1 (centres unmarked) [Example 351]	1 to 10 µM	1 to 10 µM	1 to 10 µM	0.5 to 1 µM				
Cc1ccc(NC(=O)C23CCC(C#N)(CC2)CC3)cc1-c1ccnc(-c2ccnc(NC(=O)C3CC3)c2)n1 [Example 340]	1 to 10 µM	1 to 10 µM	0.1 to 0.5 µM	≤ 0.1 µM				
COCCNc1cc(-c2cncc(-c3cc(NC(=O)c4ccnc(C(F)(F)F)c4)ccc3C)n2)ccn1 [Example 119]	1 to 10 µM	0.1 to 0.5 µM	0.1 to 0.5 µM	≤ 0.1 µM				
Cc1cc(F)c(NC(=O)c2ccnc(C(C)(C)C#N)c2)cc1-c1nccc(-c2ccnc(NC(=O)C3CC3)c2)n1 [Example 244]	0.1 to 0.5 µM	≤ 0.1 µM	≤ 0.1 µM	≤ 0.1 µM				
Cc1ccc(NC(=O)C2CCOC2)cc1-c1cccc(-c2cc(NC(=O)C3CC3)ncn2)c1 (centres unmarked) [Example 345]	1 to 10 µM	1 to 10 µM	0.1 to 0.5 µM	≤ 0.1 µM				
CNC(=O)c1cc(-c2cc(-c3cc(NC(=O)c4ccnc(C(F)(F)F)c4)ccc3C)cc(=O)n2C)ccn1 [Example 67]	1 to 10 µM	1 to 10 µM	0.5 to 1 µM	≤ 0.1 µM				
COC(C)(C)C(=O)Nc1cc(-c2cccc(-c3cc(NC(=O)c4ccnc(C(C)(C)C#N)c4)ccc3C)c2)ncn1 [Example 211]	1 to 10 µM	0.5 to 1 µM	0.5 to 1 µM	≤ 0.1 µM				
Cc1ccc(NC(=O)c2cc(C(F)(F)F)ccn2)cc1-c1cncc(-c2ccnc(NC(=O)C3CC3)c2)n1 [Example 167]	1 to 10 µM	≤ 0.1 µM	≤ 0.1 µM	≤ 0.1 µM				
